“Also recorded” adds a separate entry of the source.
Experiments:
in vitro = details: human, liver microsomes, Remaining Percentage after 60 min, human liver microsomes, without cofactors
Procedure: (§1) The concentrations of parent compounds in reaction systems were evaluated by LC-MS/MS for estimating the stability in pooled human, male rat and male mouse liver microsomes. The in vitro intrinsic clearances of test compounds were determined as well. Protocol
(§2) A master solution in the “Incubation Plate” containing phosphate buffer, ultra-pure H2O, MgCl2 solution and liver microsomes was made according to Table 6. The mixture was pre-warmed at 37° C. water bath for 5 minutes.
(§3) The reaction was started with the addition of 4 μL of 200 μM exemplary test compounds of the application or control compounds to each master solution to get the final concentration of 2 μM. This study was performed in duplicate.
(§4) Aliquots of 50 μL were taken from the reaction solution at 0, 15, 30, 45 and 60 minutes. The reaction solutions were stopped by the addition of 4 volumes of cold methanol with IS (100 nM alprazolam, 200 nM imipramine, 200 nM labetalol and 2 μM ketoprofen). Samples were centrifuged at 3,220 g for 40 minutes. Aliquot of 90 μL of the supernatant was mixed with 90 μL of ultra-pure H2O and then was used for LC-MS/MS analysis.
(§5) All calculations were carried out using Microsoft Excel. Peak area ratios of test compound to internal standard (listed in the below table) were determined from extracted ion chromatograms.
(§6) All calculations were carried out using Microsoft Excel. Peak areas were determined from extracted ion chromatograms. The slope value, k, was determined by linear regression of the natural logarithm of the remaining percentage of the parent drug vs. incubation time curve.
(§7) The in vitro half-life (in vitro t½) was determined from the slope value:
(§8) Conversion of the in vitro t½ (min) into the in vitro intrinsic clearance (in vitro CLint, in μL/min/mg proteins) was done using the following equation (mean of duplicate determinations):

[1] = Rat liver microsomes stability; details: Remaining Percentage after 60 min
Procedure: as §1, §2, §3, §4, §5, §6, §7, §8

[2] = Mouse liver microsomes stability; details: Remaining Percentage after 60 min
Procedure: as §1, §2, §3, §4, §5, §6, §7, §8

Caco-2 cell monolayers = test: Intestinal mucosal permeation using Caco-2 cell monolayers; details: for Efflux ratio: Papp (B→A) / Papp (A→B); for Efflux ratio / Percentage recovery A→B / Percentage recovery B→A: 120 min, 5 µM; for Papp A→B / Percentage recovery A→B: apical to basolateral; for Papp A→B / Papp B→A: 5 μM, 37° C., 2 hours, pH 7.4; for Papp B→A / Percentage recovery B→A: basolateral to apical
Procedure: The Caco-2 cell culture medium was prepared consisting of Dulbecco's Modified Eagle's Medium (DMEM) with high glucose and L-glutamine supplemented with 10% FBS, 1× penicillin-streptomycin mixture and 1× non-essential amino acids (NEAA). • 2. The 50 μL of culture medium was added to each well of the Transwell insert. Transwell insert was removed from reservoir and 25 mL of culture medium was added. • 3. Incubated at 37° C., 5% CO2 for 1 hour. Plates were ready for cell seeding. • 4. The cells were cultivated in T-75 flasks in a cell culture incubator set at 37° C., 5% CO2, 95% relative humidity. The cells were allowed to reach 80-90% confluence before detaching and splitting. • 5. The cultivated cells were rinsed in T-75 flasks with 5 mL PBS. Aspirated off, 1.5 mL trypsin/EDTA was added, and incubated at 37° C. for approximately 5 to 10 minutes or until the cells detach and float. Trypsin/EDTA was inactivated by adding excess serum containing medium. • 6. The cell suspension was moved to a conical tube and cells were pelleted by centrifugation at 120×g for 10 minutes. • 7. The cells were resuspended in seeding medium at a density of 6.86×10^5 cells/mL. This cell concentration can be used to seed 2.40×10^5 cells/cm^2. […] Seeding and Feeding of Caco-2 Cells in Transwell Plates • 1. 50 μL of above cell suspension was added to each well of a previously prepared Transwell plate. • 2. The plate was incubated for 14-18 days. The medium was replaced every other day, beginning no sooner than 48 hours after initial plating. • 3. The procedure for medium changes was as follows. The plate was removed from incubator and placed in hood. The medium was aspirated from reservoir and each Transwell insert. 75 μL of culture medium was added to each well of Transwell inserts and 25 mL of culture medium was added to reservoir tray. The plate was returned to incubator.
When the 14-day Caco-2 cultured cells have reached confluence and are differentiated, they were ready to be used for transport studies. • 2. The medium was removed from reservoir and Transwell inserts. • 3. 75 μL of pre-warmed culture medium was added to each transwell insert and 25 mL of reservoir tray. • 4. The electrical resistance across the monolayer was measured using automated tissue resistance measuring system (World Precision Instruments, Sarasota, FL). • 5. The electrical resistance was recorded for each well. • 6. Once all wells were measured, the plate was returned to incubator. • 7. TEER of each well was calculated by the equation below. The TEER value of each well should be greater than 230 ohms-cm^2. TEER measurement (ohms)×Area of membrane (cm^2)=TEER value (ohm-cm^2)
The Caco-2 plate was removed from the incubator. Next, the monolayer was washed, and the volume exchanged two times using pre-warmed HBSS (10 mM HEPES, pH 7.4). Then the plate was incubated for 30 minutes at 37° C. • 1 mM stock solutions of control compounds and test compound(s) were prepared in DMSO and diluted with HBSS (10 mM HEPES, pH 7.4) to reach the final concentration of 5 μM. The final concentration of DMSO in the incubation system was 0.5%. Digoxin, prazosin and propranolol were used as control compounds in this assay. • 3. HBSS (10 mM HEPES, pH 7.4) was removed after 30 minutes pre-incubation. • 4. The rate of drug transport was incubated in the apical to basolateral direction. 75 μL of the control compounds and test compound was added to the Transwell insert (apical compartment). The wells were filled in the receiver plate (basolateral compartment) with 235 μL of HBSS (10 mM HEPES, pH 7.4). • 5. The rate of drug transport was determined in the basolateral to apical direction. 235 μL of the control compounds and test compound(s) was added to the receiver plate wells (basolateral compartment). The Transwell insert (apical compartment) was filled with 75 μL of HBSS (10 mM HEPES, pH 7.4). • 6. […] Incubated at 37° C. for 2 hours. • 8.

5-HT2 receptor = details: rat brain, daily administration; cited from earlier work
[3] = system: brain's default mode network; details: humans, intravenous; cited from earlier work
[4] = patients; psilocybin-assisted psychotherapy or supportive setting; cited from earlier work
[5] = EEG during sleep; cited from earlier work

Procedure for Dog plasma stability: (§9) The stock solution of test compound was prepared in DMSO and diluted at the final concentration of 200 μM.
(§10) • a. 2.5 μL of 200 μM or 1 mM test compound or control compound solution was spiked to 497.5 μL plasma to reach a final concentration of 1 μM or 5 μM. The final concentration of organic solvents was 0.5%. The assay was performed in duplicated. • b. The reaction samples were incubated at 37° C. at approximately 60 rpm in a water bath. • c. Aliquots of 50 μL were taken from the reaction samples at 0, 30, 60, 120, 180 and 240 minutes. The reaction was stopped by the addition of 7 volumes of cold acetonitrile containing internal standards (IS: 100 nM alprazolam, 200 nM imipramine, 200 nM labetalol and 2 μM ketoprofen). • d. All samples were vortexed for 2 minutes, followed by centrifugation at 3,220 g for 30 minutes to precipitate proteins. 100 μL of the supernatant was transferred to a new plate. The supernatant was diluted with ultrapure water according to the LC-MS signal response and peak shape.
(§11) Samples were Analyzed by LC-MS/MS. • LC system: Shimadzu • MS analysis: Triple Quad™ 6500+ from AB Inc (Canada) with an ESI interface • Column temperature: 40° C. • Column: Xselect® Hss T3 2.5μ (2.1×30 mm) coupled with preguard column • Mobile phase: 0.1% formic acid in water (A) and 0.1% formic acid in acetonitrile (B)
(§12) All calculations were carried out using Microsoft Excel. Remaining percentages of parent compounds at each time point were estimated by determining the peak area ratios from extracted ion chromatograms.
Procedure for Human plasma stability: as §9, §10, §11, §12
Procedure for Mouse plasma stability: as §9, §10, §11, §12
Procedure for Rat plasma stability: as §9, §10, §11, §12

SMILES: O=C(O)Cc1ccccc1Nc1c(Cl)cccc1Cl [Diclofenac]
- remaining at 1 h, 2 µM (in vitro): 95.9%
- remaining at 1 h, 2 µM ([1]; with cofactors): 7.11%
- remaining at 1 h, 2 µM ([1]; without cofactors): 97.9%
- remaining at 1 h, 2 µM ([2]; with cofactors): 35.9%
- remaining at 1 h, 2 µM ([2]; without cofactors): 97.9%

SMILES: C[C@H]1O[C@@H](O[C@H]2[C@@H](O)C[C@H](O[C@H]3[C@@H](O)C[C@H](O[C@H]4CC[C@@]5(C)[C@H](CC[C@@H]6[C@@H]5C[C@@H](O)[C@]5(C)[C@@H](C7=CC(=O)OC7)CC[C@]65O)C4)O[C@@H]3C)O[C@@H]2C)C[C@H](O)[C@@H]1O [Digoxin]
- Efflux ratio (Caco-2 cell monolayers): 35.38
- Papp A→B (Caco-2 cell monolayers): 0.53 cm/s × 10^−6
- Percentage recovery A→B (Caco-2 cell monolayers): 86.58%
- Papp B→A (Caco-2 cell monolayers): 18.89 cm/s × 10^−6
- Percentage recovery B→A (Caco-2 cell monolayers): 104.27%

SMILES: CCN(CC)C(=O)[C@@H]1C=C2c3cccc4[nH]cc(c34)C[C@H]2N(C)C1 [LSD]
- 5-HT2 receptor density (5-HT2 receptor): selectively decreased 5-HT2 receptor density in the rat brain; also recorded: reduce 5-HT2 receptor density in rat brain
- oscillatory power [3]: decreases in oscillatory power in areas of the brain's default mode network
- relief of depression and anxiety [4]: significant and sustained anti-depressant and anxiolytic effects
- sleep patterns [5]: positively affect sleep patterns

SMILES: CC[C@H](C)C(=O)O[C@H]1C[C@@H](C)C=C2C=C[C@H](C)[C@H](CC[C@@H]3C[C@@H](O)CC(=O)O3)[C@H]21 [Lovastatin, reference compound]
- Remaining Percentage (Rat plasma stability; rat plasma, 0 min): 100.00%
- remaining at 0.5 h (Rat plasma stability; rat, plasma): 0%
- remaining at 1 h (Rat plasma stability; rat, plasma): 0%
- remaining at 2 h (Rat plasma stability; rat, plasma): 0%
- remaining at 3 h (Rat plasma stability; rat, plasma): 0%
- remaining at 4 h (Rat plasma stability; rat, plasma): 0%
- Remaining Percentage (Dog plasma stability; dog plasma, 0 min): 100.00%
- remaining at 0.5 h (Dog plasma stability; dog, plasma): 101%
- remaining at 1 h (Dog plasma stability; dog, plasma): 64.8%
- remaining at 2 h (Dog plasma stability; dog, plasma): 40.8%
- remaining at 3 h (Dog plasma stability; dog, plasma): 22.4%
- remaining at 4 h (Dog plasma stability; dog, plasma): 11%

SMILES: COc1cc2nc(N3CCN(C(=O)c4ccco4)CC3)nc(N)c2cc1OC [Prazosin]
- Efflux ratio (Caco-2 cell monolayers): 3.28
- Papp A→B (Caco-2 cell monolayers): 10.14 cm/s × 10^−6
- Percentage recovery A→B (Caco-2 cell monolayers): 79.47%
- Papp B→A (Caco-2 cell monolayers): 33.06 cm/s × 10^−6
- Percentage recovery B→A (Caco-2 cell monolayers): 104.81%

SMILES: CC(C)[N+](C)(CCOC(=O)C1c2ccccc2Oc2ccccc21)C(C)C [Propantheline, reference compound]
- T1/2 (Human plasma stability; human plasma, 37° C., N.A. if no peak detected at 30 min): 9.53 min
- remaining at 0.5 h (Human plasma stability; human, plasma): 18.7%
- remaining at 1 h (Human plasma stability; human, plasma): 1.28%
- remaining at 3 h (Human plasma stability; human, plasma): 0%
- remaining at 4 h (Human plasma stability; human, plasma): 0%
- Remaining Percentage (Mouse plasma stability; mouse plasma, 0 min): 100.00%
- T1/2 (Mouse plasma stability; mouse plasma, 37° C., N.A. if no peak detected at 30 min): 34.36 min
- remaining at 0.5 h (Mouse plasma stability; mouse, plasma): 65.3%
- remaining at 1 h (Mouse plasma stability; mouse, plasma): 32.5%
- remaining at 2 h (Mouse plasma stability; mouse, plasma): 9.12%
- remaining at 3 h (Mouse plasma stability; mouse, plasma): 2.9%
- remaining at 4 h (Mouse plasma stability; mouse, plasma): 0.87%

SMILES: CC(C)NCC(O)COc1cccc2ccccc12 (stereo not drawn) [Propranolol]
- Efflux ratio (Caco-2 cell monolayers): 0.69
- Papp A→B (Caco-2 cell monolayers): 33.5 cm/s × 10^−6
- Percentage recovery A→B (Caco-2 cell monolayers): 91.34%
- Papp B→A (Caco-2 cell monolayers): 23.09 cm/s × 10^−6
- Percentage recovery B→A (Caco-2 cell monolayers): 92.59%
